One data set concerns the target T1, PR (Homo sapiens, UniProt P06401).
T1 construct: expressed in transfected cells; host or cells: CHO-K1
T1 sequence (P06401 1-933): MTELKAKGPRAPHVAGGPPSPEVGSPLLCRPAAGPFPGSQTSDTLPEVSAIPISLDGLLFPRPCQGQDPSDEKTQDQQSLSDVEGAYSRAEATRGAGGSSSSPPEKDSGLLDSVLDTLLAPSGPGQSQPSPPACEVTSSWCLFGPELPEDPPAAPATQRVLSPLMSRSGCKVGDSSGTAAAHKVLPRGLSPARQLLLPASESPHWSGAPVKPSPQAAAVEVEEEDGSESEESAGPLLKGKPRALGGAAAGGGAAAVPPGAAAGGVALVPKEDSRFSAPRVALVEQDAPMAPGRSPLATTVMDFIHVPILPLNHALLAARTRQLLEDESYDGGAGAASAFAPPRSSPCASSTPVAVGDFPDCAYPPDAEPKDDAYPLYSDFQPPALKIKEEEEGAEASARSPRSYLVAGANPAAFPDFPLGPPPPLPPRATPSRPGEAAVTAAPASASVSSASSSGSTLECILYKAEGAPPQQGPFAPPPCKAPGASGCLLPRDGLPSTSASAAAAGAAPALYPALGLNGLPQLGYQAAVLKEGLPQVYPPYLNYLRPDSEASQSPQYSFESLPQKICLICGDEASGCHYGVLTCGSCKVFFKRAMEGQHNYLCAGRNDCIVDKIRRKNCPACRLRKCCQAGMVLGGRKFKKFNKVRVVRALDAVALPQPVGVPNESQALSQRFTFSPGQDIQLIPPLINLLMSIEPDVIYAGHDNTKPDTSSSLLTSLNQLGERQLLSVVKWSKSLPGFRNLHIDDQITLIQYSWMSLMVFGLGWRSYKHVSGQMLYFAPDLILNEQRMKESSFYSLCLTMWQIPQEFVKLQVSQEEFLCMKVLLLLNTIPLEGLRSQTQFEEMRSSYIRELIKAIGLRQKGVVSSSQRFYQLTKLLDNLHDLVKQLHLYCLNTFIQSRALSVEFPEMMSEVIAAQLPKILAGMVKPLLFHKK
Kind of data set: In Vitro PR Luciferase Reporter Assay (antagonist mode, CHO-K1-PR-MMTV-Luc reporter cells). The data set is classed as cell-based. To be noted: antagonist assay with 20 nM Progesterone, 18-24 hours, read-out: PR antagonism IC50. The text has this: Example C: In Vitro PR Luciferase Reporter Assay
Cell Line: CHO-KI-PR-MMTV-Luc reporter cells
Culture Media: DMEM (with phenol red)+1000FBS
Assay Media: DMEM (without phenol red)+1000CSS
Culture CHO-Kl-PR-MMTV-Luc reporter cells in 15 cm plates in Culture Media at conditions less than 90% confluence.
Prepared 200×DMSO 1:8 serial dilutions of control and test compounds in 96-well non-sterile V bottom plate in DMSO, 8 serial dilutions for each compound.
Prepared 5× Assay Media diluted compound serial dilutions in 96-well non-sterile V bottom plate: Add 97.5 μL/well of Assay Media into 96-well then add 2.5 μl of 200× concentration of compounds and mix well.
Added compounds: 5 μl of assay media diluted compounds were added to appropriate wells and followed a quick spin (1000 rpm, 10 sec) to bring media and cells to the bottom of plate. The plates were covered with SealMate film to avoid evaporation and placed in 37° C. incubator for approximately 18-24 hours.
Read plates: Equilibrated appropriate amount of Promega One-Glo luciferase reagent to room temperature. Removed the plates from incubator and added 25 μL of One-Glo luciferase reagent/well by multiple channel pipette and read the plates with Tecan F500 luminometer within 3 minutes.
The ability of exemplary compounds disclosed herein to inhibit PR activity was quantified and the respective IC50 value was determined. Table 4 provides the cellular IC50 values of exemplary compounds disclosed herein.
(In general: Reporter assays use an easily measured gene product as a stand-in for the process of interest.)

The target of the next data set is T2, CYP2C8 (Homo sapiens, UniProt P10632).
T2 construct: Pooled human microsomes were obtained from Sekisui XenoTech, KS; tissue Sekisui XenoTech, KS; host or cells: pooled human liver microsomes
T2 sequence (P10632 1-490): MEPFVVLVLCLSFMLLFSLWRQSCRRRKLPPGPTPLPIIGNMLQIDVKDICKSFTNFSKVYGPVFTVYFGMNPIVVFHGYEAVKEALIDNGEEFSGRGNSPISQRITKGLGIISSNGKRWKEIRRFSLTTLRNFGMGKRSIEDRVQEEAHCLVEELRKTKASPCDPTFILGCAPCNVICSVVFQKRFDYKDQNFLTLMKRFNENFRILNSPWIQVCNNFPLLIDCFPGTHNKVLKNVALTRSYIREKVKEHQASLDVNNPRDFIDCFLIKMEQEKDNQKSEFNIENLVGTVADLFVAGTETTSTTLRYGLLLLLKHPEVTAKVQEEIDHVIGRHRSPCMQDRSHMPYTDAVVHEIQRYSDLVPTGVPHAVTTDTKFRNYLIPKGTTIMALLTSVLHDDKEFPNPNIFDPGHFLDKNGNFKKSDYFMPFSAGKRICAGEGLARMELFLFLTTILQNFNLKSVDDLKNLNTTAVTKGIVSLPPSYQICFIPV
Kind of data set: CYP Inhibition Assay (CYP2C8, human liver microsomes, paclitaxel substrate). The class given is in vitro ADME. As to conditions: pH 7.4; pooled human liver microsomes 0.1 mg/mL, probe substrate paclitaxel. An outline of the steps:
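Pooled human liver microsomes (0.1 mg/mL) in 50 mM potassium phosphate pH 7.4 with compound, started with 1 mM NADPH, 5 min at 37° C, duplicate.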
Background: Liver microsomes are vesicles of endoplasmic reticulum, rich in cytochrome P450 enzymes.

Consider five compounds from patent US20210122730A1, “GLUCOCORTICOID RECEPTOR MODULATORS” (ORIC Pharmaceuticals, Inc., priority 2017, published 2021).

Broadly, the IC50 is the concentration at which inhibition is half-maximal. A word on the inhibition: it is the relative decrease from the control value, in per cent.

Take `Cn1cc(S(=O)(=O)N(CC(C)(C)O)[C@H]2CCC3=Cc4c(cnn4-c4ccc(F)cc4)C[C@]3(C(=O)c3cc(F)ccn3)C2)cn1` [Example 248, N-((4aS,6S)-1-(4-fluorophenyl)-4a-(4-fluoropicolinoyl)-4,4a,5,6,7,8-hexahydro-1H-benzo[f]indazol-6-yl)-N-(2-hydroxy-2-methylpropyl)-1-methyl-1H-pyrazole-4-sulfonamide]: on PR, the IC50 was more than 5 µM. The same compound yielded an inhibition at 5 min against CYP2C8 not above 25%.

On to `Cn1ccc(S(=O)(=O)N(C2CC(F)(F)C2)[C@H]2CCC3=Cc4c(cnn4-c4ccc(F)cc4)C[C@]3(C(=O)c3ncc(C(F)(F)F)s3)C2)n1` [Example 270, N-(3,3-difluorocyclobutyl)-N-((4aS,6S)-1-(4-fluorophenyl)-4a-(5-(trifluoromethyl)thiazole-2-carbonyl)-4,4a,5,6,7,8-hexahydro-1H-benzo[f]indazol-6-yl)-1-methyl-1H-pyrazole-3-sulfonamide], for which the IC50 at PR stood at 3.6 µM. The compound also displayed an inhibition at 5 min against CYP2C8 not above 25%.

For the compound `Cn1ccc(S(=O)(=O)N([C@H]2CCC3=Cc4c(cnn4-c4ccc(F)cc4)C[C@]3(C(=O)c3ncc(C(F)(F)F)s3)C2)[C@H]2C[C@@](C)(O)C2)n1` [Example 277, N-((4aS,6S)-1-(4-fluorophenyl)-4a-(5-(trifluoromethyl)thiazole-2-carbonyl)-4,4a,5,6,7,8-hexahydro-1H-benzo[f]indazol-6-yl)-N-((1s,3R)-3-hydroxy-3-methylcyclobutyl)-1-methyl-1H-pyrazole-3-sulfonamide], the IC50 at PR was more than 5 µM. Moreover, the inhibition at 5 min against CYP2C8 was not above 25%.

In the case of `Cn1cnc(S(=O)(=O)N(C2CC2)[C@H]2CCC3=Cc4c(cnn4-c4ccc(F)cc4)C[C@]3(C(=O)c3ncc(C(F)(F)F)s3)C2)n1` [Example 305, N-cyclopropyl-N-((4aS,6S)-1-(4-fluorophenyl)-4a-(5-(trifluoromethyl)thiazole-2-carbonyl)-4,4a,5,6,7,8-hexahydro-1H-benzo[f]indazol-6-yl)-1-methyl-1H-1,2,4-triazole-3-sulfonamide], the IC50 on PR was more than 5 µM. This compound displayed an inhibition at 5 min on CYP2C8 of 25 to 50%.

For `Cn1cnc(S(=O)(=O)N(C2CC2)[C@H]2CCC3=Cc4c(cnn4-c4ccc(F)cc4)C[C@]3(C(=O)c3cc(C(F)(F)F)ccn3)C2)n1` [Example 306, N-cyclopropyl-N-((4aS,6S)-1-(4-fluorophenyl)-4a-(4-(trifluoromethyl)picolinoyl)-4,4a,5,6,7,8-hexahydro-1H-benzo[f]indazol-6-yl)-1-methyl-1H-1,2,4-triazole-3-sulfonamide], the IC50 at PR was more than 5 µM. Besides, the inhibition at 5 min on CYP2C8 is not above 25%.
